Read-outs that look alike come from different tables or passages of the source. Square brackets hold non-standard residues; d marks the D form. Peptide text beside a SMILES is read from it. * marks the point of attachment. Butanoyl(4-(4-HOPh)) = O=C(CCCc1ccc(O)cc1)*

The conditions of experiment [1]: secondary test.
The test system of the next experiment is anesthetized dogs. The experiment can be described thus: anesthetized dog protocol: infusion, measuring MAP, RBF, RVR and HR. The experiment is classed as in vivo.
Experiment [2] has as its system spontaneously hypertensive rat.
The conditions of experiment [3]: secondary test. The source holds these as a separate data set.
The mark [4] stands for this setting: cumulative effects at 300 µg/kg/min.

Consider “4-(4-hydroxyphenyl)-butyryl-L-prolyl-D,L-a-methylphenylalanyl-glycyl-L-proline [Example 2]”, for which the ED15 in experiment [1] came to 1.9e-06 µg/kg. The compound also had a Renal blood flow in the experiment with anesthetized dogs (cumulative effect, measured after the normal period of the test, increased from 127 ml/min) of 162 mL/min. For the same compound, in the experiment on anesthetized dogs (cumulative effect, measured after the normal period of the test, predrug level 140 BPM), the “cardiac rate (HR)” value was 105 BPM. For the same compound, the “reversal of antidiuretic hormone activity” value with toad bladder is “inactive”. Also, the “activity in the spontaneously hypertensive rat protocol” value in experiment [2] (rat, in vivo) is on record as “not active”. The water diuresis entry in experiment [2] (spontaneously hypertensive rat protocol) is “slight water diuresis”.
As to `NCCc1ccc(O)c(O)c1` [Dopamine, dopamine], the ED15 in experiment [3] was 3.5 µg/kg.
Turning to `O=C(NCC(=O)N1CCC[C@H]1C(=O)O)[C@@H](Cc1ccccc1)NC(=O)[C@@H]1CCCN1C(=O)CCCc1ccc(O)cc1` [Example 3, N-4-(4-hydroxyphenyl)-butyryl-L-prolyl-D-phenylalanyl-glycyl-L-proline] ({Butanoyl(4-(4-HOPh))}-P[dF]GP-OH), in the experiment with anesthetized dogs (setting [4]), the HR is listed as -8 and the RBF entry was “+22”. The compound also returned an RVR in the experiment with anesthetized dogs (cumulative effects at 300 µg/kg/min, parameter name not printed before the value) of -18.

The record behind these values is patent publication EP0086660B1, “Renally active tetrapeptides” (SMITHKLINE BECKMAN CORPORATION, priority 1982, dated 1985).
